Test results published in patent publication US10065990B2, “Cyclic peptide compound, and preparation method, pharmaceutical composition and use thereof” (HANGZHOU GUANYU BIO-MEDICAL CO., LTD, priority 2013, dated 2018).
Like-named read-outs stand apart in the source and are kept apart here.

How the values were obtained:
HDAC7 = target: T1, HDAC7 (Homo sapiens, UniProt Q8WUI4); assay: HDAC biochemical activity measurement (fluorescent substrate deacetylation);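 also: fluorogenic deacetylation assay using acetyl-lysine substrate at 20 µM, enzyme and compound incubated 30 min at 37 °C, then developer added, fluorescence read at 360/460 nm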; conditions: HDAC7; 37° C. 30 minutes
T1 sequence (Q8WUI4 1-952): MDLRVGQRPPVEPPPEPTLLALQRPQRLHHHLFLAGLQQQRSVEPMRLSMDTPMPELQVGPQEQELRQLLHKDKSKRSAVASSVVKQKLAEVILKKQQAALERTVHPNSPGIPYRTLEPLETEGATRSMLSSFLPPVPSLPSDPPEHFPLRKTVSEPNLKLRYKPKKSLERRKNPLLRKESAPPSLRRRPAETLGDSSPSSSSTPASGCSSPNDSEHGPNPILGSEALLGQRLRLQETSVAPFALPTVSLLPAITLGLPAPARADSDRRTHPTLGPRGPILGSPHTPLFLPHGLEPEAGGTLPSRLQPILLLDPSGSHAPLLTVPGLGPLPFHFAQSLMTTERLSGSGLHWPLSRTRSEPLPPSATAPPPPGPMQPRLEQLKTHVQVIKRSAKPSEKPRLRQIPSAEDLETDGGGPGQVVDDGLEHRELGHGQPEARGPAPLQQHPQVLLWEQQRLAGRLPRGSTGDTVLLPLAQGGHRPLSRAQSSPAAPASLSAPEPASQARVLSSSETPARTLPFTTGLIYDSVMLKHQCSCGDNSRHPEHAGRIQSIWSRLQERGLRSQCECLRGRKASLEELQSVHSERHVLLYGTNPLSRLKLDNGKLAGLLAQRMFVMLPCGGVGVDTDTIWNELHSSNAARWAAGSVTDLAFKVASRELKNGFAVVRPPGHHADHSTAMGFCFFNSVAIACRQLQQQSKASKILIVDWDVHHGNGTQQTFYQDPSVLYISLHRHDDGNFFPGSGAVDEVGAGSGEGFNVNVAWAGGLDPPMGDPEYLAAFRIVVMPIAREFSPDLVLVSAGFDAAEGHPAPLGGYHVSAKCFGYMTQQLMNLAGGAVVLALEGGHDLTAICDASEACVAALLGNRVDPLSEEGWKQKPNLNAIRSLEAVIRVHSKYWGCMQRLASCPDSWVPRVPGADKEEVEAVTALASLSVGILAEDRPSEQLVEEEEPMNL

[1] = system: A549 (human lung cancer cells); assay: MTT cancer cell growth inhibition; type: cell-based; conditions: Homo sapiens, A549, 72 h, MTT, 72 hours incubation, read-out: GI50 A54
Method in brief: (§1)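 Cells grown in DMEM or RPMI 1640 with 10% FBS were seeded at 1500/well and left overnight at 37° C., 5% CO2. Compounds at final 10^−5 to 10^−10 M were added in triplicate for 72 h. MTT was then added for 4 h, formazan dissolved in DMSO, and absorbance read at 570 nm to derive GI50.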

[2] = system: BGC-823 (human gastric cancer cells); assay: MTT cancer cell growth inhibition; type: cell-based; conditions: Homo sapiens, BGC-823, 72 h, MTT, 72 hours incubation, read-out: GI50 BG
Method in brief: as §1

[3] = system: Bel-7402 (human hepatoma cells); assay: MTT cancer cell growth inhibition; type: cell-based; conditions: Homo sapiens, Bel-7402, 72 h, MTT, 72 hours incubation, Bel-7402 cells; read-out: GI50 Bel-7402
Method in brief: as §1

[4] = system: DU145 (human prostate cancer cells); assay: MTT cancer cell growth inhibition; type: cell-based; conditions: Homo sapiens, DU-145, 72 h, MTT, 72 hours incubation, read-out: GI50 Du1
Method in brief: as §1

[5] = system: H1975 (non-small cell lung adenocarcinoma); assay: MTT cancer cell growth inhibition; type: cell-based; conditions: Homo sapiens, NCI-H1975, 72 h, MTT, 72 hours incubation, H1975 cells; read-out: GI50 H1975
Method in brief: as §1

[6] = system: HCC827 (human non-small cell lung cancer cells); assay: MTT cancer cell growth inhibition; type: cell-based; conditions: Homo sapiens, HCC827, 72 h, MTT, 72 hours incubation, HCC827 cells; read-out: GI50 HCC827
Method in brief: as §1

[7] = system: HT1080 (human fibrosarcoma cells); assay: MTT cancer cell growth inhibition; type: cell-based; conditions: Homo sapiens, HT-1080, 72 h, MTT, 72 hours incubation, read-out: GI50 HT1
Method in brief: as §1

[8] = system: Hela (human cervical cancer cells); assay: MTT cancer cell growth inhibition; type: cell-based; conditions: Homo sapiens, HeLa, 72 h, MTT, 72 hours incubation, read-out: GI50 Hela
Method in brief: as §1

[9] = system: Huh-7 (human hepatoma cells); assay: MTT cancer cell growth inhibition; type: cell-based; conditions: Homo sapiens, Huh-7, 72 h, MTT, 72 hours incubation, Huh-7 cells; read-out: GI50 Huh-7
Method in brief: as §1

[10] = system: K562 (human leukemia cells); assay: MTT cancer cell growth inhibition; type: cell-based; conditions: Homo sapiens, K562, 72 h, MTT, 72 hours incubation, K562 cells; read-out: GI50 K562
Method in brief: as §1

[11] = system: KBM-5 (human chronic myelogenous leukemia); assay: MTT cancer cell growth inhibition; type: cell-based; conditions: Homo sapiens, KBM5, 72 h, MTT, 72 hours incubation, KBM-5 cells; read-out: GI50 KBM-5
Method in brief: as §1

[12] = system: KBM5-T315I (human chronic myelogenous leukemia); assay: MTT cancer cell growth inhibition; type: cell-based; conditions: Homo sapiens, 72 h, MTT, 72 hours incubation, KBM5-T315I cells; read-out: GI50 KBM5-T315I
Method in brief: as §1

[13] = system: MCF-7 (human breast cancer cells); assay: MTT cancer cell growth inhibition; type: cell-based; conditions: Homo sapiens, MCF7, 72 h, 72 hours incubation, read-out: GI50 MCF
Method in brief: as §1

[14] = system: MDA-MB-231 (breast cancer cells); assay: MTT cancer cell growth inhibition; type: cell-based; conditions: Homo sapiens, MDA-MB-231, 72 h, read-out: GI50 MDA-MB-231, MTT, 72 hours incubation, MDA-MB-231 cells
Method in brief: as §1

[15] = system: MOLT-4 (human acute lymphoblastic leukemia cells); assay: MTT cancer cell growth inhibition; type: cell-based; conditions: Homo sapiens, MOLT-4, 72 h, MTT, 72 hours incubation, read-out: GI50 Mol
Method in brief: as §1

[16] = system: N-87 (human gastric cancer cells); assay: MTT cancer cell growth inhibition; type: cell-based; conditions: Homo sapiens, 72 h, MTT, 72 hours incubation, N-87 cells; read-out: GI50 N-87
Method in brief: as §1

[17] = system: PANC-1 (Pac-1, human pancreatic cancer cells); assay: MTT cancer cell growth inhibition; type: cell-based; conditions: Homo sapiens, PANC-1, 72 h, MTT, 72 hours incubation, read-out: GI50 PAN
Method in brief: as §1

[18] = system: SGC-7901 (human gastric cancer cells); assay: MTT cancer cell growth inhibition; type: cell-based; conditions: Homo sapiens, SGC-7901, 72 h, MTT, 72 hours incubation, SGC-7901 cells; read-out: GI50 SGC-7901
Method in brief: as §1

[19] = system: U937 (human leukemia cells); assay: MTT cancer cell growth inhibition; type: cell-based; conditions: Homo sapiens, U-937, 72 h, MTT, 72 hours incubation, read-out: GI50 U93
Method in brief: as §1

[20] = system: lncap (prostate cancer cells); assay: MTT cancer cell growth inhibition; type: cell-based; conditions: Homo sapiens, LNCaP, 72 h, MTT, 72 hours incubation, read-out: GI50 lnca
Method in brief: as §1

| IC50 HDAC7 (HDAC7) | GI50 ([1]; A549 cells) [nM] | GI50 ([2]; BGC-823 cells) [nM] | GI50 [3] [nM] | GI50 ([4]; DU145 cells) [nM] | GI50 [5] [nM] | GI50 [6] [nM] | GI50 ([7]; HT1080 cells) [nM] | GI50 ([8]; Hela cells) [nM] | GI50 [9] [nM] | GI50 [10] [nM] | GI50 [11] [nM] | GI50 [12] [nM] | GI50 ([13]; MCF-7 cells) [nM] | GI50 [14] [nM] | GI50 ([15]; MOLT-4 cells) [nM] | GI50 [16] [nM] | GI50 ([17]; PANC-1 cells) [nM] | GI50 [18] [nM] | GI50 ([19]; U937 cells) [nM] | SMILES | further results |
| --- | --- | --- | --- | --- | --- | --- | --- | --- | --- | --- | --- | --- | --- | --- | --- | --- | --- | --- | --- | --- | --- |
| no activity | 60 | 10 | 95 | 20 | 32 | 41 | 60 | 50 | 53 | 33 | 32 | 45 | 50 | 38 | 30 | 23 | 50 | 65 | 70 | C/C=C1\NC(=O)c2nc(ccc2SCC)CNC(=O)C[C@@H](/C=C/CCSC(=O)CCCCCCC)OC(=O)[C@H](C(C)C)NC1=O [Compound 247] | GI50 ([20]; lncap cells): 20 nM |
| no activity | 20 | 50 | 28 | 20 | 23 | 56 | 20 | 60 | 75 | 63 | 57 | 17 | 30 | 67 | 70 | 48 | 60 | 86 | 50 | C/C=C1\NC(=O)c2cc(SC)cc(n2)CNC(=O)C[C@@H](/C=C/CCSC(=O)CCCCCCC)OC(=O)[C@H](Cc2ccccc2)NC1=O [Compound 190] | GI50 ([20]; lncap cells): 30 nM |
| no activity | 20 | 80 | 26 | 60 | 59 | 45 | 40 | 30 | 26 | 107 | 28 | 34 | 30 | 46 | 40 | 39 | 70 | 58 | 50 | C/C=C1\NC(=O)c2ccc(SC)c(n2)CNC(=O)C[C@@H](/C=C/CCSC(C)=O)OC(=O)[C@H](Cc2cccc3ccccc23)NC1=O [Compound 200] | GI50 ([20]; lncap cells): 80 nM |
| no activity |  |  | 41 |  | 33 | 22 |  |  | 38 | 42 | 35 | 42 |  | 41 |  | 21 |  | 33 |  | C/C=C1\NC(=O)c2cc(F)cc(n2)CNC(=O)C[C@@H](/C=C/CCS)OC(=O)[C@H](Cc2ccc(O)cc2)NC1=O [Compound 129] | GI50 [1]: 80 nM; GI50 [2]: 30 nM; GI50 [4]: 30 nM; GI50 [7]: 130 nM; GI50 [8]: 40 nM; GI50 [13]: 30 nM; GI50 [15]: 60 nM; GI50 [17]: 50 nM; GI50 [19]: 10 nM; GI50 [20]: 70 nM |
| no activity | 20 | 50 | 89 | 130 | 62 | 64 | 70 | 80 | 23 | 58 | 28 | 93 | 60 | 85 | 30 | 56 | 60 | 45 | 60 | C/C=C1\NC(=O)c2cc(SC)cc(n2)CNC(=O)C[C@@H](/C=C/CCSC(C)=O)OC(=O)[C@H](CCCCNC(=O)OCC2c3ccccc3-c3ccccc32)NC1=O [Compound 196] | GI50 ([20]; lncap cells): 60 nM |
| no activity |  |  | 93 |  | 53 | 93 |  |  | 37 | 43 | 38 | 29 |  | 37 |  | 16 |  | 53 |  | C/C=C1\NC(=O)c2ccc(F)c(n2)CNC(=O)C[C@@H](/C=C/CCSC(C)=O)OC(=O)[C@H](Cc2ccc(O)cc2)NC1=O [Compound 83] | GI50 [1]: 50 nM; GI50 [2]: 10 nM; GI50 [4]: 40 nM; GI50 [7]: 90 nM; GI50 [8]: 30 nM; GI50 [13]: 20 nM; GI50 [15]: 30 nM; GI50 [17]: 90 nM; GI50 [19]: 50 nM; GI50 [20]: 30 nM |
